In ChEMBL document CHEMBL4342527, “Discovery of Novel Fungal Lanosterol 14α-Demethylase (CYP51)/Histone Deacetylase Dual Inhibitors to Treat Azole-Resistant Candidiasis” (J Med Chem, 2020):
≈ marks a conversion by molar mass, not a printed value.

Key:
Candida albicans [1] = assay: Antifungal activity against azole-sensitive Candida albicans SC5314 after 48 hrs by spectrophotometry-based serial microdilution method; assay type: functional; details: Candida albicans, SC5314, 48 h; read-out: MIC80
Candida albicans [2] = assay: Antifungal activity against azole-resistant Candida albicans 0304103 after 48 hrs by spectrophotometry-based serial microdilution method; assay type: functional; details: Candida albicans, 0304103, 48 h
Candida albicans [3] = assay: Antifungal activity against azole-resistant Candida albicans 4108 after 48 hrs by spectrophotometry-based serial microdilution method; assay type: functional; details: Candida albicans, 4108, 48 h
Cryptococcus neoformans = assay: Antifungal activity against azole-sensitive Cryptococcus neoformans H99 after 72 hrs by spectrophotometry-based serial microdilution method; assay type: functional, var grubii H99; details: Cryptococcus neoformans, var grubii H99 , 72 h; read-out: MIC80
Candida albicans [4] = assay: Antifungal activity against azole-resistant Candida albicans 7781 after 48 hrs by spectrophotometry-based serial microdilution method; assay type: functional; details: Candida albicans, 7781, 48 h
Candida tropicalis = assay: Antifungal activity against azole-resistant Candida tropicalis 5008 after 48 hrs by spectrophotometry-based serial microdilution method; assay type: functional; details: Candida tropicalis, 5008, 48 h

SMILES | MIC80 (Candida albicans [1]) [µg/mL] | MIC80 (Candida albicans [2]) [µg/mL] | MIC80 (Candida albicans [3]) [µg/mL] | MIC80 (Cryptococcus neoformans) [µg/mL] | MIC80 (Candida albicans [4]) [µg/mL] | MIC80 (Candida tropicalis) [µg/mL]
CN(Cc1ccc(OCCCOc2ccc(C(=O)NO)cc2)cc1)CC(O)(Cn1cncn1)c1ccc(F)cc1F (racemic) | 0.125 (≈ 0.22 µM) | 0.5 (≈ 0.881 µM) | 1 (≈ 1.76 µM) | 0.5 (≈ 0.881 µM) | 1 (≈ 1.76 µM) | 0.25 (≈ 0.44 µM)
CN(Cc1cccc(OCCCOc2ccc(CCC(=O)NO)cc2)c1)CC(O)(Cn1cncn1)c1ccc(F)cc1F (racemic) | 4 (≈ 6.72 µM) | 8 (≈ 13.4 µM) | 4 (≈ 6.72 µM) | 2 (≈ 3.36 µM) | 8 (≈ 13.4 µM) | 8 (≈ 13.4 µM)
O=C(NO)c1ccc(OCCCc2ncnn2CC(O)(Cn2cncn2)c2ccc(F)cc2F)cc1 (racemic) | 64 (≈ 128 µM) | 32 (≈ 64.1 µM) | 64 (≈ 128 µM) | 64 (≈ 128 µM) | 8 (≈ 16 µM) | > 64
CN(Cc1ccc(-n2cnn(CCCCCCC(=O)NO)c2=O)cc1)CC(O)(Cn1cncn1)c1ccc(F)cc1F (racemic) | 64 (≈ 109 µM) | 16 (≈ 27.4 µM) | 64 (≈ 109 µM) | 8 (≈ 13.7 µM) | 32 (≈ 54.7 µM) | 64 (≈ 109 µM)
O=C(NO)c1ccc(OCCCc2ncn(CC(O)(Cn3cncn3)c3ccc(F)cc3F)n2)cc1 (racemic) | 8 (≈ 16 µM) | 64 (≈ 128 µM) | 32 (≈ 64.1 µM) | 64 (≈ 128 µM) | 8 (≈ 16 µM) | 64 (≈ 128 µM)
CN(Cc1ccc(OCCCCCCC(=O)NO)cc1)CC(O)(Cn1cncn1)c1ccc(F)cc1F (racemic) | 1 (≈ 1.93 µM) | 1 (≈ 1.93 µM) | 1 (≈ 1.93 µM) | 1 (≈ 1.93 µM) | 1 (≈ 1.93 µM) | 2 (≈ 3.86 µM)
CN(Cc1ccc(-n2cnn(CCCCCCCC(=O)NO)c2=O)cc1)CC(O)(Cn1cncn1)c1ccc(F)cc1F (racemic) | 16 (≈ 26.7 µM) | 8 (≈ 13.4 µM) | 64 (≈ 107 µM) | 2 (≈ 3.34 µM) | 8 (≈ 13.4 µM) | 8 (≈ 13.4 µM)
CN(Cc1ccc(CCCCOc2ccc(CC(=O)NO)cc2)cc1)CC(O)(Cn1cncn1)c1ccc(F)cc1F (racemic) | 0.125 (≈ 0.216 µM) | 0.5 (≈ 0.863 µM) | 1 (≈ 1.73 µM) | 0.5 (≈ 0.863 µM) | 1 (≈ 1.73 µM) | 0.5 (≈ 0.863 µM)
CN(Cc1ccc(-n2cnn(CCCOc3ccc(CC(=O)NO)cc3)c2=O)cc1)CC(O)(Cn1cncn1)c1ccc(F)cc1F (racemic) | 64 (≈ 98.7 µM) | 32 (≈ 49.3 µM) | 32 (≈ 49.3 µM) | 8 (≈ 12.3 µM) | 4 (≈ 6.17 µM) | 4 (≈ 6.17 µM)
O=C(Cc1ccc(OCCCc2ncnn2CC(O)(Cn2cncn2)c2ccc(F)cc2F)cc1)NO (racemic) | 8 (≈ 15.6 µM) | 32 (≈ 62.3 µM) | > 64 | 64 (≈ 125 µM) | 16 (≈ 31.2 µM) | > 64
CCC(C)n1ncn(-c2ccc(N3CCN(c4ccc(OCC5COC(Cn6cncn6)(c6ccc(Cl)cc6Cl)O5)cc4)CC3)cc2)c1=O (stereo not drawn) [ITRACONAZOLE] | 0.5 (≈ 0.709 µM) | > 64 | > 64 | 0.125 (≈ 0.177 µM) | > 64 | > 64
CN(Cc1ccc(CCCC(=O)Nc2ccc(CC(=O)NO)cc2)cc1)CC(O)(Cn1cncn1)c1ccc(F)cc1F (racemic) | 1 (≈ 1.69 µM) | 1 (≈ 1.69 µM) | 1 (≈ 1.69 µM) | 1 (≈ 1.69 µM) | 1 (≈ 1.69 µM) | 32 (≈ 54 µM)
CN(Cc1cccc(OCCCOc2ccc(CC(=O)NO)cc2)c1)CC(O)(Cn1cncn1)c1ccc(F)cc1F (racemic) | 2 (≈ 3.44 µM) | 4 (≈ 6.88 µM) | 2 (≈ 3.44 µM) | 1 (≈ 1.72 µM) | 2 (≈ 3.44 µM) | 2 (≈ 3.44 µM)
CN(Cc1ccc(-n2cnn(CCCCCC(=O)NO)c2=O)cc1)CC(O)(Cn1cncn1)c1ccc(F)cc1F (racemic) | 32 (≈ 56.1 µM) | 16 (≈ 28 µM) | 64 (≈ 112 µM) | 8 (≈ 14 µM) | 32 (≈ 56.1 µM) | 64 (≈ 112 µM)
CC(C)N(Cc1ccc(OCCCOc2ccc(CC(=O)NO)cc2)cc1)CC(O)(Cn1cncn1)c1ccc(F)cc1F (racemic) | 2 (≈ 3.28 µM) | 2 (≈ 3.28 µM) | 4 (≈ 6.56 µM) | 2 (≈ 3.28 µM) | 2 (≈ 3.28 µM) | 4 (≈ 6.56 µM)
O=C(NO)c1ccc(OCCCCc2ncn(CC(O)(Cn3cncn3)c3ccc(F)cc3F)n2)cc1 (racemic) | 4 (≈ 7.79 µM) | > 64 | > 64 | 64 (≈ 125 µM) | 64 (≈ 125 µM) | > 64
CN(Cc1ccc(OCCCOc2ccc(CCC(=O)NO)cc2)cc1)CC(O)(Cn1cncn1)c1ccc(F)cc1F (racemic) | 1 (≈ 1.68 µM) | 2 (≈ 3.36 µM) | 4 (≈ 6.72 µM) | 1 (≈ 1.68 µM) | 2 (≈ 3.36 µM) | 4 (≈ 6.72 µM)
CN(Cc1ccc(-n2cnn(CCCc3ccc(C(=O)NO)cc3)c2=O)cc1)CC(O)(Cn1cncn1)c1ccc(F)cc1F (racemic) | 32 (≈ 51.7 µM) | 4 (≈ 6.47 µM) | 32 (≈ 51.7 µM) | 2 (≈ 3.23 µM) | 2 (≈ 3.23 µM) | 8 (≈ 12.9 µM)
